Measured values: US9028856B2, “Synergistic pesticide compositions” (priority 2008, dated 2015)
Like-named read-outs stand apart in the source and are kept apart here.

Assays:
[1] = test system: bait averse/resistant German cockroach (T-164 strain); assay: Knockdown/mortality of male cockroaches under continuous exposure on treated glazed tile; format: in vivo, Blattella germanica; design: Average % Knockdown & Mortality after 5 hr / Average % Knockdown & Mortality after 30 min: concentration or dose not given beside the values; details: glazed tile
[2] = test system: Blattella germanica, susceptible strain; assay: Contact efficacy against cockroaches on glazed tiles (acetone solutions); format: in vivo; details: mean of three replicates; for mortality at 60 mg/m2: imidacloprid 0.1%, 60 mg/m^2, glazed tile; for mortality at 310 mg/m2: imidacloprid 0.5%, 310 mg/m^2, glazed tile; for mortality at 620 mg/m2: imidacloprid 1%, 620 mg/m^2, glazed tile
Experimental: Male Blattella germanica, susceptible strain, were used. A solution of the active ingredient in acetone pipetted onto the corresponding tile on an area of 12.5 cm×12.5 cm.
One day later, a glass ring (diameter 9.5 cm, height 5.5 cm) inner wall treated with talcum was placed on the tile and five male German cockroaches were introduced. Knock down and mortality, respectively, were evaluated after 30′, 1 h, 3 h and 1 d. A water soaked cotton pad was added after 3 hours.
Each trial consisted of three replicates of which the mean values are calculated.

Aedes aegypti mosquito = assay: USDA Petri Dish Method, 3 min exposure to dipped fiberglass window screen; format: in vivo
Experimental: MATERIALS AND METHODS: Aqueous solutions of 1% deltamethrin with and without an adjuvant composition, which is sold under the tradename Suspend® SC. […] Pre-cut fiberglass screen (5″×5″, or 161.3 cm^2) were dipped in each treatment solution and excessive solution was allowed to drain completely (see FIG. 23 a). Weight of the solution coated on the screen was then determined. The treated screen was then allowed to air-dry overnight. USDA Petri Dish Method was used as initial screening protocol (see FIG. 23 b). Twenty, 4-6 day old female Aedes aegypti were exposed to treated window screen for 3 minutes and then moved onto a clean untreated white paper index card. Treatments were replicated a minimum of three times. Mosquito knockdown was evaluated at 3 minute intervals for the first 15 minutes and then at 5 minute intervals for the remainder of an hour. A small cotton ball with sucrose solution was added on the screen top of the Petri dish as a drinking source. Mortality was evaluated at 24 hours after exposure.
MATERIALS AND METHODS: Several rates of permethrin without adjuvant were prepared using product sold under the tradename Permanone® 40 to determine an effective rate against Aedes aegypti mosquitoes. After determining an effective rate range, aqueous solutions of permethrin at 1.25, 1.0 and 0.05% AI were prepared with and without adjuvant. […] Pre-cut fiberglass screens (5″×5″ or 161.3 cm^2) were dipped in each treatment solution allowing excessive solution to drain completely. Weight of the solution coated on the screen was then determined. The treated screen was then allowed to air-dry overnight. USDA Petri Dish Method was used as initial screening protocol (see photo, right). Twenty, 4-6 day old female Aedes aegypti were exposed to treated window screen for 3 minutes and then moved to a clean untreated white paper index card. Treatments were replicated a minimum of three times. Mosquito knockdown was evaluated at 3 minute intervals for the first 15 minutes and then at 5 minute intervals for the remainder of an hour. A small cotton ball with sucrose solution was added on the screen top of the petri-dish as a drinking source. Mortality was evaluated at 24 hours after exposure.

[3] = test system: bait averse/resistant German cockroach (IHOP strain), Blattella germanica; assay: Knockdown/mortality of male cockroaches under continuous exposure on treated glazed tile; format: in vivo; details: Table 28, aqueous deltamethrin/adjuvant, IHOP strain
Experimental: Treatments were allowed to dry overnight. […] Treatments were replicated a minimum of three times. Evaluations for cockroach knockdown/mortality were made at various intervals for 1 hour and at 24 hours after exposure.
Treatments were allowed to dry overnight. […] Evaluations for cockroach knockdown/mortality were made at various intervals and at 60 minutes after exposure.
Treatments were allowed to dry overnight. […] Treatments were replicated a minimum of three times.

[4] = test system: Culex quinquefasciatus mosquito; assay: USDA Petri Dish Method, 3 min exposure to dipped fiberglass window screen; format: in vivo; details: Table 29, aqueous deltamethrin/adjuvant
Experimental: MATERIALS AND METHODS: Aqueous solutions of 1% deltamethrin with and without adjuvant were prepared using product sold under the tradename Suspend® SC. […] Pre-cut fiberglass screen (5″×5″, or 161.3 cm^2) were dipped in each treatment solution and excessive solution was allowed to drain completely. Weight of the solution coated on the screen was then determined. The treated screen was then allowed to air-dry overnight. USDA Petri Dish Method was used as initial screening protocol. Twenty, 4-6 day old female Culex quinquefasciatus were exposed to treated window screen for 3 minutes and then moved onto a clean untreated white paper index card. Treatments were replicated a minimum of three times. Mosquito knockdown was evaluated at 3 minute intervals for the first 15 minutes and then at 5 minute intervals for the remainder of an hour. A small cotton ball soaked in sucrose solution was added on the screen top of the petri-dish as a drinking source. Mortality was evaluated at 24 hours after exposure.

[5] = 0.5 h, read-out: Average % knockdown & mortality after 30 min
[6] = 1 h, read-out: Average % knockdown & mortality after 60 min
[7] = 3 h, read-out: Average % knockdown & mortality after 3 hr
[8] = 24 h, read-out: Average % knockdown & mortality after 24 hr

In the case of O=[N+]([O-])NC1=NCCN1Cc1ccc(Cl)nc1 [imidacloprid], the “Average % Knockdown & Mortality after 45 min” value ([1]; 45 min, Table 24, imidacloprid/dibutyl sebacate (DBS) in acetone, T-164 strain) was 0%, the “Average % Knockdown & Mortality after 3 hr” value ([1]; 3 hr, Table 23, imidacloprid/tritylchloride in acetone, T-164 strain) was 7% and the “Average % Knockdown & Mortality after 15 min” value ([1]; Table 5 (Ex. 2), continuous exposure) was 0%. For the same compound, the “Average % Knockdown & Mortality after 15 min” value ([1]; Table 6 (Ex. 3), continuous exposure) was 0%, the “Average % Knockdown & Mortality after 15 min” value ([1]; Table 9 (Ex. 6), continuous exposure) was 0% and the “Average % Knockdown & Mortality after 15 min” value ([1]; Table 11 (Ex. 8), continuous exposure) was 0%. The “Average % Knockdown & Mortality after 4 hr” value ([1]; Table 13 (Ex. 10), continuous exposure) was 0%, the “Average % Knockdown & Mortality after 4 hr” value ([1]; Table 15 (Ex. 12), continuous exposure) was 20% and the “Average % Knockdown & Mortality after 5 hr” value ([1]; Table 17 (Ex. 14), continuous exposure) was 19%. For the same compound, the “Average % Knockdown & Mortality after 4 hr” value ([1]; Table 18 (Ex. 15), continuous exposure) was 47%, the “Average % Knockdown & Mortality after 3 hr” value ([1]; Table 21 (Ex. 18), continuous exposure) was 7% and the mortality at 60 mg/m2 [2, 5] was 0%. For the same compound, the mortality at 310 mg/m2 [2, 5] was 0%, the mortality at 620 mg/m2 [2, 5] was 0% and the mortality at 60 mg/m2 [2, 6] was 0%. The mortality at 310 mg/m2 [2, 6] was 0%, the mortality at 620 mg/m2 [2, 6] was 0% and the mortality at 60 mg/m2 [2, 7] was 20%. For the same compound, the mortality at 310 mg/m2 [2, 7] was 0%, the mortality at 620 mg/m2 [2, 7] was 13% and the mortality at 60 mg/m2 [2, 8] was 40%. The mortality at 310 mg/m2 [2, 8] was 0% and the mortality at 620 mg/m2 [2, 8] was 40%.

With CC1(C)[C@H](C(=O)O[C@H](C#N)c2cccc(Oc3ccccc3)c2)[C@@H]1C=C(Br)Br [deltamethrin] the “mortality at 24 hours after exposure” value (Aedes aegypti mosquito; 1% deltamethrin alone, treated screen) was 100% and the “efficacy of the substance alone (summary in words)” value (Aedes aegypti mosquito; Aedes aegypti, treated window screen) was “good knockdown”.

With CC1(C)[C@H](C(=O)O[C@H](C#N)c2cccc(Oc3ccccc3)c2)[C@@H]1C=C(Br)Br [deltamethrin (1%)] the “Average % Knockdown & Mortality after 3 min” value (Aedes aegypti mosquito; 3 min, Table 26, aqueous deltamethrin/adjuvant, dipped screen, 3 min exposure) was 0%, the “Average % Knockdown & Mortality after 9 min” value (Aedes aegypti mosquito; 9 min, Table 26, aqueous deltamethrin/adjuvant, dipped screen, 3 min exposure) was 0% and the “Average % Knockdown & Mortality after 15 min” value (Aedes aegypti mosquito; 15 min, Table 26, aqueous deltamethrin/adjuvant, dipped screen, 3 min exposure) was 0%. For the same compound, the “Average % Knockdown & Mortality after 30 min” value (Aedes aegypti mosquito; 30 min, Table 26, aqueous deltamethrin/adjuvant, dipped screen, 3 min exposure) was 27%, the “Average % Knockdown & Mortality after 60 min” value (Aedes aegypti mosquito; 60 min, Table 26, aqueous deltamethrin/adjuvant, dipped screen, 3 min exposure) was 84% and the “Average % Knockdown & Mortality after 24 hr” value (Aedes aegypti mosquito; 24 hr, Table 26, aqueous deltamethrin/adjuvant, dipped screen, 3 min exposure) was 100%. For the same compound, the “Average % Mortality after 10 min” value ([3]; 10 min) was 20%, the “Average % Mortality after 30 min” value ([3]; 30 min) was 93% and the “Average % Mortality after 60 min” value ([3]; 60 min) was 100%. For the same compound, the “Average % Mortality after 24 hr” value ([3]; 24 hr) was 100%, the “Average % Knockdown & Mortality after 15 min” value ([4]; 15 min) was 0% and the “Average % Knockdown & Mortality after 30 min” value ([4]; 30 min) was 2%. For the same compound, the “Average % Knockdown & Mortality after 45 min” value ([4]; 45 min) was 3%, the “Average % Knockdown & Mortality after 60 min” value ([4]; 60 min) was 8% and the “Average % Knockdown & Mortality after 4 hr” value ([4]; 4 hr) was 52%. For the same compound, the “Average % Knockdown & Mortality after 24 hr” value ([4]; 24 hr) was 86%.
